Patent US9296734B2 (AMGEN INC., priority 2013, dated 2016)
Read-outs that look alike come from different tables or passages of the source.

Biological target: Cathepsin D (Cat D) (Homo sapiens (Human), UniProt P07339)
Test: In vitro enzymatic Cathepsin D (Cat D) FRET assay
Type: biochemical
Conditions: read-out: CatD IC50
Method: In Vitro Enzymatic Cathepsin D (Cat D) FRET (Fluorescence Resonance Energy Transfer) Assay
Recombinant Cat D was expressed in CHO cells. The assay buffer for CathepsinD is 0.05 M citrate pH 3.5, 10% DMSO final, 5 mM CHAPS. […] The assays are effectively started by the addition of different FRET substrates (20 nM for Cat D) and the combination is incubated for one hour. The FRET assay is terminated with by addition of Tris buffer, which raises the pH to neutrality, and the fluorescence is determined. The FRET substrate is a peptide with commercially available fluorophore and quencher, on opposite sides of the BACE cleavage site. […] Proteolytic cleavage of the FRET substrate releases quenching of fluorescence (Cat D excitation 500 nm and emission 580 nm).
In addition, the cathepsin D and cathepsin E assays are described in PCT publication WO2011069934.

[1] = average IC50, cathepsin D enzyme assay

Sequence of Cathepsin D (Cat D) (P07339 65-412, species assumed): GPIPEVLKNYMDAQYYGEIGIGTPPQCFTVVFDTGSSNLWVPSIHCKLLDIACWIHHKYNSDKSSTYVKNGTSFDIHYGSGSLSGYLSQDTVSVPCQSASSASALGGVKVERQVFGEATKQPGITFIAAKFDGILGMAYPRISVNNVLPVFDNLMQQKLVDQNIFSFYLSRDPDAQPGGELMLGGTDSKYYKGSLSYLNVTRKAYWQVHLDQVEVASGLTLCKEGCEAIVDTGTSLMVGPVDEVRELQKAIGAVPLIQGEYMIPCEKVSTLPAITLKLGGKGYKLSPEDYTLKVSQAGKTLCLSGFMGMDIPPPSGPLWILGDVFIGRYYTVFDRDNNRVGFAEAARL

## COc1cnc(C(=O)Nc2ccc(F)c([C@]3(CF)C[C@H](C(F)(F)F)OC(N)=N3)c2)cn1 (racemic) [Example 25, N-(3-((4S,6R)-2-amino-4-(fluoromethyl)-6-(trifluoromethyl)-5,6-dihydro-4H-1,3-oxazin-4-yl)-4-fluorophenyl)-5-methoxypyrazine-2-carboxamide]
Average IC50
  IC50: > 400 µM

## Cc1cc(Cl)cnc1C(=O)Nc1ccc(F)c([C@]2(C)C[C@@H](C(F)(F)F)OC(N)=N2)c1 (racemic) [Example 31, N-(3-((4SR,6SR)-2-amino-4-methyl-6-(trifluoromethyl)-5,6-dihydro-4H-1,3-oxazin-4-yl)-4-fluorophenyl)-5-chloro-3-methyl-2-pyridinecarboxamide]
Average IC50
  IC50: 202 µM

## N#Cc1cnc2c(Nc3ccc(F)c([C@]4(CF)C[C@@H](C(F)(F)F)OC(N)=N4)c3)ncc(F)c2c1 [Example 10, 8-((3-((4S,6S)-2-amino-4-(fluoromethyl)-6-(trifluoromethyl)-5,6-dihydro-4H-1,3-oxazin-4-yl)-4-fluorophenyl)amino)-5-fluoro-1,7-naphthyridine-3-carbonitrile]
Average IC50
  IC50: > 44 µM

## NC1=N[C@](CF)(c2cc(Nc3ncnc4cc(Cl)cnc34)ccc2F)C[C@@H](C(F)(F)F)O1 [Example 11, (4S,6S)-4-(5-((7-chloropyrido[3,2-d]pyrimidin-4-yl)amino)-2-fluorophenyl)-4-(fluoromethyl)-6-(trifluoromethyl)-5,6-dihydro-4H-1,3-oxazin-2-amine]
Average IC50
  IC50: 54.4 µM

## COc1cnc2c(Nc3ccc(F)c([C@]4(CF)C[C@@H](C(F)(F)F)OC(N)=N4)c3)nccc2c1 [Example 12, (4S,6S)-4-(2-fluoro-5-((3-methoxy-1,7-naphthyridin-8-yl)amino)phenyl)-4-(fluoromethyl)-6-(trifluoromethyl)-5,6-dihydro-4H-1,3-oxazin-2-amine]
Average IC50
  IC50: > 400 µM

## COc1cnc2c(Nc3ccc(F)c([C@]4(CF)C[C@@H](C(F)(F)F)OC(N)=N4)c3)ncnc2c1 [Example 13, (4S,6S)-4-(2-fluoro-5-((7-methoxypyrido[3,2-d]pyrimidin-4-yl)amino)phenyl)-4-(fluoromethyl)-6-(trifluoromethyl)-5,6-dihydro-4H-1,3-oxazin-2-amine]
Average IC50
  IC50: > 400 µM

## COc1cccnc1Nc1ccc(F)c([C@]2(CF)C[C@@H](C(F)(F)F)OC(N)=N2)c1 [Example 15, (4S,6S)-4-(2-fluoro-5-((3-methoxypyridin-2-yl)-amino)phenyl)-4-(fluoromethyl)-6-(trifluoromethyl)-5,6-dihydro-4H-1,3-oxazin-2-amine]
[1]
  IC50: 1080 µM

## NC1=N[C@](CF)(c2cc(Nc3ncc(F)c4cc(Cl)cnc34)ccc2F)C[C@@H](C(F)(F)F)O1 [Example 19, (4S,6S)-4-(5-((3-chloro-5-fluoro-1,7-naphthyridin-8-yl)amino)-2-fluorophenyl)-4-(fluoromethyl)-6-(trifluoromethyl)-5,6-dihydro-4H-1,3-oxazin-2-amine]
[1]
  IC50: > 133 µM

## NC1=N[C@](CF)(c2cc(Nc3ncnc4sc(C(F)F)nc34)ccc2F)C[C@@H](C(F)(F)F)O1 [Example 21, (4S,6S)-4-(5-((2-(difluoromethyl)thiazolo[5,4-d]pyrimidin-7-yl)amino)-2-fluorophenyl)-4-(fluoromethyl)-6-(trifluoromethyl)-5,6-dihydro-4H-1,3-oxazin-2-amine]
[1]
  IC50: > 400 µM

## COc1cnc(C(=O)Nc2ccc(F)c([C@]3(CF)C[C@@H](C(F)(F)F)OC(N)=N3)c2)c(C)n1 [Example 33, N-(3-((4S,6S)-2-amino-4-(fluoromethyl)-6-(trifluoromethyl)-5,6-dihydro-4H-1,3-oxazin-4-yl)-4-fluorophenyl)-5-methoxy-3-methylpyrazine-2-carboxamide]
Average IC50
  IC50: > 400 µM

## C#CCOc1cnc(C(=O)Nc2ccc(F)c([C@]3(CF)C[C@@H](C(F)(F)F)OC(N)=N3)c2)cn1 [Example 35, N-(3-((4S,6S)-2-amino-4-(fluoromethyl)-6-(trifluoromethyl)-5,6-dihydro-4H-1,3-oxazin-4-yl)-4-fluorophenyl)-5-(prop-2-yn-1-yloxy)pyrazine-2-carboxamide]
[1]
  IC50: > 400 µM

## NC1=N[C@](CF)(c2cc(NC(=O)c3nn(C(F)F)cc3Cl)ccc2F)C[C@@H](C(F)(F)F)O1 [Example 36, N-(3-((4S,6S)-2-amino-4-(fluoromethyl)-6-(trifluoromethyl)-5,6-dihydro-4H-1,3-oxazin-4-yl)-4-fluorophenyl)-4-chloro-1-(difluoromethyl)-1H-pyrazole-3-carboxamide]
[1]
  IC50: 2380 µM

## Cc1nc(OCC(F)(F)F)cnc1C(=O)Nc1ccc(F)c([C@]2(CF)C[C@@H](C(F)(F)F)OC(N)=N2)c1 [Example 38, N-(3-((4S,6S)-2-amino-4-(fluoromethyl)-6-(trifluoromethyl)-5,6-dihydro-4H-1,3-oxazin-4-yl)-4-fluorophenyl)-3-methyl-5-(2,2,2-trifluoroethoxy)pyrazine-2-carboxamide]
[1]
  IC50: > 400 µM

## NC1=N[C@](CF)(c2cc(NC(=O)c3ncc(C(F)(F)F)cc3Cl)ccc2F)C[C@@H](C(F)(F)F)O1 [Example 44, N-(3-((4S,6S)-2-amino-4-(fluoromethyl)-6-(trifluoromethyl)-5,6-dihydro-4H-1,3-oxazin-4-yl)-4-fluorophenyl)-3-chloro-5-(trifluoromethyl)picolinamide]
[1]
  IC50: > 400 µM

## C#CCOc1cnc(C(=O)Nc2ccc(F)c([C@]3(C)C[C@@H](C(F)(F)F)OC(N)=N3)c2)cn1 [Example 45, N-(3-((4S,6S)-2-amino-4-methyl-6-(trifluoromethyl)-5,6-dihydro-4H-1,3-oxazin-4-yl)-4-fluorophenyl)-5-(prop-2-yn-1-yloxy)pyrazine-2-carboxamide]
average
  IC50: 2570 µM

## NC1=N[C@](CF)(c2cc(NC(=O)c3cnc(OCc4ncco4)cn3)ccc2F)C[C@@H](C(F)(F)F)O1 [Example 46, N-(3-((4S,6S)-2-amino-4-(fluoromethyl)-6-(trifluoromethyl)-5,6-dihydro-4H-1,3-oxazin-4-yl)-4-fluorophenyl)-5-(oxazol-2-ylmethoxy)pyrazine-2-carboxamide]
[1]
  IC50: > 400 µM

## COc1ccc(C(=O)Nc2ccc(F)c([C@]3(CF)C[C@@H](C(F)(F)F)OC(N)=N3)c2)nc1 [Example 49, N-(3-((4S,6S)-2-amino-4-(fluoromethyl)-6-(trifluoromethyl)-5,6-dihydro-4H-1,3-oxazin-4-yl)-4-fluorophenyl)-5-methoxypicolinamide]
Average IC50
  IC50: > 400 µM

## NC1=N[C@](CF)(c2cc(NC(=O)c3ncc(Br)cc3Cl)ccc2F)C[C@@H](C(F)(F)F)O1 [Example 56, N-(3-((4S,6S)-2-amino-4-(fluoromethyl)-6-(trifluoromethyl)-5,6-dihydro-4H-1,3-oxazin-4-yl)-4-fluorophenyl)-5-bromo-3-chloro-2-pyridinecarboxamide]
Average IC50
  IC50: > 400 µM

## NC1=N[C@](CF)(c2cc(NC(=O)c3ncc(Cl)cc3Cl)ccc2F)C[C@@H](C(F)(F)F)O1 [Example 58, N-(3-((4S,6S)-2-amino-4-(fluoromethyl)-6-(trifluoromethyl)-5,6-dihydro-4H-1,3-oxazin-4-yl)-4-fluorophenyl)-3,5-dichloropicolinamide]
Average IC50
  IC50: 2390 µM

## N#Cc1ccc(C(=O)Nc2ccc(F)c([C@]3(CF)C[C@@H](C(F)(F)F)OC(N)=N3)c2)nc1 [Example 59, N-(3-((4S,6S)-2-amino-4-(fluoromethyl)-6-(trifluoromethyl)-5,6-dihydro-4H-1,3-oxazin-4-yl)-4-fluorophenyl)-5-cyanopicolinamide]
Average IC50
  IC50: > 400 µM

## C[C@@]1(c2cc(NC(=O)c3ccc(C#N)cn3)cnc2F)C[C@@H](C(F)(F)F)OC(N)=N1 [Example 62, N-(5-((4S,6S)-2-amino-4-methyl-6-(trifluoromethyl)-5,6-dihydro-4H-1,3-oxazin-4-yl)-6-fluoropyridin-3-yl)-5-cyanopicolinamide]
Average IC50
  IC50: > 400 µM

## COc1ccc(C(=O)Nc2cnc(F)c([C@]3(C)C[C@@H](C(F)(F)F)OC(N)=N3)c2)nc1 [Example 63, N-(5-((4S,6S)-2-amino-4-methyl-6-(trifluoromethyl)-5,6-dihydro-4H-1,3-oxazin-4-yl)-6-fluoropyridin-3-yl)-5-methoxypicolinamide]
[1]
  IC50: > 400 µM

## COc1cnc(C(=O)Nc2cnc(F)c([C@]3(C)C[C@@H](C(F)(F)F)OC(N)=N3)c2)c(Cl)c1 [Example 69, N-(5-((4S,6S)-2-amino-4-methyl-6-(trifluoromethyl)-5,6-dihydro-4H-1,3-oxazin-4-yl)-6-fluoropyridin-3-yl)-3-chloro-5-methoxypicolinamide]
Average IC50
  IC50: > 400 µM

## COc1cnc(C(=O)Nc2cnc(F)c([C@]3(C)C[C@@H](C(F)(F)F)OC(N)=N3)c2)cn1 [Example 70, N-(5-((4S,6S)-2-amino-4-methyl-6-(trifluoromethyl)-5,6-dihydro-4H-1,3-oxazin-4-yl)-6-fluoropyridin-3-yl)-5-methoxypyrazine-2-carboxamide]
[1]
  IC50: 397 µM

## C#CCOc1cnc(C(=O)Nc2cnc(F)c([C@]3(C)C[C@@H](C(F)(F)F)OC(N)=N3)c2)cn1 [Example 73, N-(5-((4S,6S)-2-amino-4-methyl-6-(trifluoromethyl)-5,6-dihydro-4H-1,3-oxazin-4-yl)-6-fluoropyridin-3-yl)-5-(prop-2-yn-1-yloxy)pyrazine-2-carboxamide]
average
  IC50: 1690 µM

## C[C@@]1(c2cc(Nc3ncc(F)c4cc(C#N)cnc34)cnc2F)C[C@@H](C(F)(F)F)OC(N)=N1 [Example 78, 8-((5-((4S,6S)-2-amino-4-methyl-6-(trifluoromethyl)-5,6-dihydro-4H-1,3-oxazin-4-yl)-6-fluoropyridin-3-yl)amino)-5-fluoro-1,7-naphthyridine-3-carbonitrile]
Average IC50
  IC50: > 400 µM
